Consider nine molecules from patent publication US7666901B2, “Analogs of 17-hydroxywortmannin as PI3K inhibitors” (Wyeth, priority 2004, dated 2010).

Assay [1] relates to LNCaP (human prostate carcinoma). Kind of assay: Cell proliferation (MTS) assay, LNCaP. The note with it: Homo sapiens, LNCaP, 72 h, three days treatment. The format is cell-based. On the procedure: (§1) Results of cell proliferation assays for exemplary compounds are shown below in Tables 1 and 2. Cell lines LNCaP (human prostate carcinoma), MDA468 (human breast cancer cell), MDA435 (human breast adenocarcinoma), and DU145 (human prostate carcinoma[…]) were purchased from American Type Culture Collection (ATCC) (Rockville, Md.). Cells were cultured in RPMI Medium 1640 containing 10% fetal bovine serum (FBS) in a 37° C. incubator containing 5% CO2. All cell culture reagents were purchased from Gibco-BRL (Grand Island, N.Y.). Cells were plated in 96-well culture plates at about 3000 cells per well. One day following plating, compounds or vehicle controls (buffer only) were added to cells. Proliferation assays were performed three days post initiation of treatment.
(§2) For a non-radioactive cell proliferation assay, viable cell densities are determined by measuring metabolic conversion (by viable cells) of the dye MTS tatrazolium dye, a cell proliferation assay known by one of skill in the art (MTS assay), a previously established cell proliferation assay. The assay is performed using an assay kit (Promega Corp., Madison, Wis.). The assay plates are incubated for 1-2 hours, and the results are read in a 96-well format plate reader by measuring absorbance at 490 nm. Effect of each compound is calculated as a percentage of control cell growth obtained from vehicle-treated cells grown in the same plate.

For assay [2], the system named is DU145 (human prostate carcinoma/lymphocytic leukemia). Kind of assay: Cell proliferation (MTS) assay, DU145. It is filed as cell-based. The settings on record: Homo sapiens, DU-145, 72 h, Table 1; three days treatment. The protocol:
as §1, §2

Assay [3] relates to MDA468 (human breast cancer cell). Kind of assay: Cell proliferation (MTS) assay, MDA468. It is filed as cell-based. The settings on record: Homo sapiens, 72 h, three days treatment. The protocol:
as §1, §2

The next assay addresses T1, Human TOR (Homo sapiens, UniProt P42345).
T1 construct: FLAG
The assay can be described thus: Human TOR (mTOR) kinase assay, DELFIA format. The format is biochemical. On the procedure: The PI3K/AKT/TOR pathway is critical for cell proliferation, growth, survival, and angiogensis. Accordingly, compounds of the present invention may also be useful to inhibit TOR activity. Similar in vivo and in vitro assays to those described above with reference to PI3K can be used to determine the minimum concentration of compound sufficient to inhibit TOR. A human TOR assay and a Rat1-IGF1 assay as described in Examples 67 and 68, respectively was performed with some embodiments of the invention. The results of these assays are shown below in Tables 1 and 2.
Human TOR assays (See Toral-Barza, et al. Biochem Biophys. Res. Commun. 2005 Jun. 24; 332(1):304-10) with purified enzyme are performed in 96-well plates by DELFIA format as follows. Enzymes are first diluted in kinase assay buffer (10 mM Hepes (pH 7.4), 50 mM NaCl, 50 mM b-glycerophosphate, 10 mM MnCl2, 0.5 mM DTT, 0.25 mM microcystin LR, and […] BSA). To each well, 12 mL of the diluted enzyme is mixed briefly with 0.5 mL test inhibitor or control vehicle dimethylsulfoxide (DMSO). The kinase reaction is initiated by adding 12.5 mL kinase assay buffer containing ATP and His6-S6K to give a final reaction volume of 25 mL containing 800 ng/mL FLAG-TOR, […] ATP and […] His6-S6K. The reaction plate is incubated for 2 hours (linear at 1-6 hours) at room temperature with gentle shaking and then terminated by adding 25 mL Stop buffer (20 mM Hepes (pH 7.4), 20 mM EDTA, 20 mM EGTA). The DELFIA detection of the phosphorylated (Thr-389) His6-S6K is performed at room temperature using a monoclonal anti-P(T389)-p70S6K antibody (1A5, Cell Signaling) labeled with Europium-N1-ITC (Eu) (10.4 Eu per antibody, PerkinElmer). The DELFIA Assay buffer and Enhancement solution can be purchased from PerkinElmer. 45 mL of the terminated kinase reaction mixture is transferred to a MaxiSorp plate (Nunc) containing 55 mL PBS. The His6-S6K is allowed to attach for 2 hours after which the wells are aspirated and washed once with PBS. 100 mL of DELFIA Assay buffer with 40 ng/mL Eu-P(T389)-S6K antibody is added. The antibody binding is continued for 1 hour with gentle agitation. The wells are then aspirated and washed 4 times with PBS containing 0.05% Tween-20 (PBST). […] of DELFIA Enhancement solution is added to each well and the plates are read in a PerkinElmer Victor model plate reader. Data obtained is used to calculate enzymatic activity and enzyme inhibition by potential inhibitors.

The test system of assay [4] is MDA435 (human breast adenocarcinoma). Kind of assay: Cell proliferation (MTS) assay, MDA435. The format is cell-based. The settings on record: Homo sapiens, MDA435, 72 h, Table 1; three days treatment. The protocol:
as §1, §2

Another assay concerns T2, PI3K.
T2 construct: PI3K FP IC50
The assay can be described thus: Fluorescence polarization assay for PI3K. It is filed as biochemical. The settings on record: for PI3K FP IC50: Table 1. The protocol:
This assay is used to determine the IC50 of compounds of the present invention as it identifies inhibitors of PI3 kinase by measuring inhibition.
The assay is run by placing 5 μL of diluted enzyme per well, then 5 μL of diluted compound (or 9.5 μL enzyme then 0.5 μL compound in DMSO) is added and mixed. Then, 10 μL substrate is added to start the reaction. The samples are incubated 30-60 minutes, then the reaction is stopped by adding 20 μL stop/detector mix.
PI3K is diluted with reaction buffer (e.g., 5 μL or 7.5 μL PI3K into 620 μL reaction buffer), and 5 μL of diluted enzyme is used per well. 5 μL reaction buffer or drug diluted in buffer (e.g., 4 μL/100 so final DMSO is 1% in reaction) is added to each. The samples are mixed by pipetting up and down. Alternatively, the enzyme can be diluted to 1215 μL. In this case 9.8 μL is added per well and 0.2 μL compound is added in DMSO.
To prepare 1 mL of substrate solution, 955 μL reaction buffer, 40 μL PIP2, and 2.5 μL ATP are mixed. 10 μL of substrate is added to each well to start the reaction.
Stop/detector mix is prepared by mixing 4 μL Red detector and 1.6 μL or 2.0 μL GST-GRP with 1 mL Stop buffer, which results in 10 nM probe and 70 nM GST-GRP). 20 μL of the stop/detector mix is added to each well to stop the reaction. The plates are read after 30-90 minutes keeping the red probe solutions dark.
For the zero time point, stop/detector mix is added to the enzyme just before adding substrate. For an extra control, stop/detector mix is added to buffer (no enzyme) and substrate or to just buffer (no substrate).
The recommended reaction has 0.06 μL per 20 μL (0.015 μg/20 μL) or 0.01125 μg/15 μL or 0.75 μg/mL.
Plates are read on machines with filters for Tamra. The units are mP with no enzyme controls reading app 190-220 mP units. Fully active enzyme reduces fluorescence polarization down to 70-100 mP after 30 minutes. An active cpd raises the mP values halfway to control or to 120-150 mP units.

Values after ≈ are worked out from the molar mass of the structure shown.

As usually defined, the IC50 is the concentration that inhibits the measured activity by half. Take `COC[C@H]1OC(=O)/C(=C/N2CCCC2)C2=C(O)C(=O)C3=C([C@H](OC(C)=O)C[C@]4(C)[C@@H](O)CC[C@@H]34)[C@]21C` [Compound 2, (1E,4S,4aR,5R,6aS,7S,9aR)-7,11-dihydroxy-4-(methoxymethyl)-4a,6a-dimethyl-2,10-dioxo-1-(Pyrrolidin-1-ylmethylene)-1,2,4,4a,5,6,6a,7,8,9,9a,10-dodecahydroindeno[4,5-h]isochromen-5-yl acetate]: the IC50 in assay [1] (Table 1) is 0.1 µg/mL; in assay [2], 1.4 µg/mL; in assay [3] (Table 1), 1 µg/mL; against Human TOR (Table 1) it was above 19.9 µM; in assay [4] it was 6 µg/mL.
Regarding `COC[C@H]1OC(=O)/C(=C/N(C)CCCN(C)C)C2=C(O)C(=O)C3=C([C@H](O)C[C@@]4(C)C3CC[C@@H]4O)[C@]21C` (stereo partly drawn) [Compound 60, (1E,4S,4aR,5R,6aS,7S)-1-{[[3-(dimethylamino)propyl](methyl)amino]methylene}-5,7,11-trihydroxy-4-(methoxymethyl)-4a,6a-dimethyl-4a,5,6,6a,7,8,9,9a-octahydroindeno[4,5-h]isochromene-2,10(1H,4H)-dione], the IC50 is 0.33 µg/mL (≈ 0.654 µM) in assay [1] (Table 2), 0.007 µM in the assay with PI3K (Table 2), 2 µg/mL (≈ 3.96 µM) in assay [3] (Table 2) and 0.396 µM against Human TOR (Table 2).
Consider `CCN(C=C1C(=O)OC(COC)C2(C)C1=C(O)C(=O)C1=C2C(OC(C)=O)CC2(C)C(O)CCC12)CCN(CC)CC` (stereo not drawn) [Compound 42, Acetic acid 4-{[(2-diethylamino-ethyl)-ethyl-amino]-methylene}-6,17-dihydroxy-1-methoxymethyl-10,13-dimethyl-3,7-dioxo-1,3,4,7,10,11,12,13,14,15,16,17-dodecahydro-2-oxa-cyclopenta[a]phenanthren-11-yl ester], for which the figures for the IC50 (in assay [1] (Table 1); in assay [3] (Table 1); against Human TOR (Table 1)) were 0.75 µg/mL (≈ 1.3 µM), 4.1 µg/mL (≈ 7.13 µM) and 1.48 µM, respectively. The “PI3K FP IC50” value in the assay with PI3K worked out at 0.014 µg/mL.
In the case of `CCCC(=O)OC1CC2(C)C(O)CCC2C2=C1C1(C)C(=C(O)C2=O)C(=CN(C)CC(C)N(C)C)C(=O)OC1COC` (stereo not drawn) [Compound 63, Butanoic acid 4-{[(2-dimethylamino-propyl)-methyl-amino]-methylene}-6,17-dihydroxy-1-methoxymethyl-10,13-dimethyl-3,7-dioxo-1,3,4,7,10,11,12,13,14,15,16,17-dodecahydro-2-oxa-cyclopenta[a]phenanthren-11-yl ester], on Human TOR (Table 1), inhibition was half-maximal at 0.539 µM (IC50).
As to `COCC1OC(=O)C(=CN(CCN(C)C)Cc2ccccc2)C2=C(O)C(=O)C3=C(C(OC(C)=O)CC4(C)C(O)CCC34)C21C` (stereo not drawn) [Compound 43, Acetic acid 4-{[benzyl-(2-dimethylamino-ethyl)-amino]-methylene}-6,17-dihydroxy-1-methoxymethyl-10,13-dimethyl-3,7-dioxo-1,3,4,7,10,11,12,13,14,15,16,17-dodecahydro-2-oxa-cyclopenta[a]phenanthren-11-yl ester], the IC50 in assay [1] (Table 1) is 0.42 µg/mL (≈ 0.69 µM); in assay [3] (Table 1), 3.4 µg/mL (≈ 5.59 µM); against Human TOR (Table 1), 4.6 µM. Moreover, in the assay with PI3K, the “PI3K FP IC50” value came to 0.027 µg/mL.
In the case of `CCN(/C=C1/C(=O)O[C@H](COC)[C@@]2(C)C1=C(O)C(=O)C1=C2[C@H](OC(C)=O)C[C@@]2(C)C1CC[C@@H]2OC=O)CC` (stereo partly drawn) [Compound 18, (1E,4S,4aR,5R,6aS,7S)-1-[(diethylamino)methylene]-7-(formyloxy)-11-hydroxy-4-(methoxymethyl)-4a,6a-dimethyl-2,10-dioxo-1,2,4,4a,5,6,6a,7,8,9,9a,10-dodecahydroindeno[4,5-h]isochromen-5-yl acetate], the half-maximal inhibitory concentration (IC50) in assay [1] (Table 1) was 0.11 µg/mL; in assay [2], 1.5 µg/mL; in assay [3] (Table 1), 0.4 µg/mL; against Human TOR (Table 1), 4.7 µM; in assay [4], 6 µg/mL.
Regarding `COCC1OC(=O)C(=CN(CCC#N)Cc2ccccc2)C2=C(O)C(=O)C3=C(C(OC(C)=O)CC4(C)C(O)CCC34)C21C` (stereo not drawn) [Compound 41, Acetic acid 4-{[benzyl-(2-cyano-ethyl)-amino]-methylene}-6,17-dihydroxy-1-methoxymethyl-10,13-dimethyl-3,7-dioxo-1,3,4,7,10,11,12,13,14,15,16,17-dodecahydro-2-oxa-cyclopenta[a]phenanthren-11-yl ester], the IC50 in assay [1] (Table 1) was 1.45 µg/mL (≈ 2.45 µM); in assay [3] (Table 1), 5 µg/mL (≈ 8.46 µM); on Human TOR (Table 1), 0.728 µM. Also, in the assay with PI3K, the “PI3K FP IC50” value came to 0.028 µg/mL.
Consider “(1E,4S,4aR,5R,6aS,7S,9aR)-1-({4-[2-(2,5-dioxo-2,5-dihydro-1H-pyrrol-1-yl)ethyl]piperazin-1-yl}methylene)-7,11-dihydroxy-4-(methoxymethyl)-4a,6a-dimethyl-2,10-dioxo-1,2,4,4a,5,6,6a,7,8,9,9a,10-dodecahydroindeno[4,5-h]isochromen-5-yl acetate [Compound 65]”, for which, in the assay on PI3K, the “PI3K FP IC50” value was 1.55 µg/mL. For the same molecule, on Human TOR (Table 1), the “TOR IC50” value amounted to 0.58 µg/mL.
On to `CCN(/C=C1/C(=O)O[C@H](COC)[C@@]2(C)C1=C(O)C(=O)C1=C2[C@H](OC(C)=O)C[C@]2(C)[C@@H](O)CC[C@@H]12)CC` [Compound 1, (1E,4S,4aR,5R,6aS,7S,9aR)-1-[(diethylamino)methylene]-7,11-dihydroxy-4-(methoxymethyl)-4a,6a-dimethyl-2,10-dioxo-1,2,4,4a,5,6,6a,7,8,9,9a,10-dodecahydroindeno[4,5-h]isochromen-5-yl acetate], for which the IC50 stood at 0.075 µg/mL in assay [1] (Table 1), 2 µg/mL in assay [2], 1 µg/mL in assay [3] (Table 1) and 6 µg/mL in assay [4].
